This is an account of results in patent publication US12116333B1, “3,3'-(hydrazine-1,2-diyl)bis(1-(naphthalen-2-yloxy)propan-2-ol) as an ecofriendly insecticidal agent against spodoptera littoralis (boisd.)” (KING FAISAL UNIVERSITY, priority 2023, dated 2024).

The structures appear in SMILES notation. Converted amounts (≈) assume the structure as drawn.

In the series the test system is Spodoptera littoralis. As to the kind of experiment: Insecticidal bioassay screening (castor leaf dip) against 2nd and 4th instar larvae. It counts as in vivo. The settings on record: for Toxic ratio: 72 h, fenoxycarb's LC50/compound's LC50 ×100. As to the method: Five concentrations (200, 100, 50, 25, 12.5 ppm) were designed for this synthetic compound and the reference fenoxycarb compound as the dynamic ingredients based on ppm via diluting the commercial formulation.
In this experiment, castor leaves were immersed in each of the previously prepared concentrations of the components for 10 seconds and then left to dry for 60 minutes.
Larvae of the second and fourth instars of each checked strain were prepared with treated leaves in gauze-covered glass containers for 72 hrs. An untreated control was made in which leaves were dipped in triton x-100 and distilled water only. Then, the preserved leaves were removed & fresh, untreated leaves were provided for 72 hours. Three replicates (10 larvae each) were checked for each concentration. Daily inspection was carried out for all treatments and mortality percentages were recorded 3 days (72 hours) after treatment. The average mortality percentage was corrected employing Abbott's formula. The corrected mortality rate for each of the previously synthesized compounds was statistically calculated according to Finney (1970). Through this rate, the corresponding concentration test lines (LDP lines) were assessed. Fifty and ninety percent mortality was determined, and the regression values for the checked products were previously evaluated.

What is called LC50 is the concentration lethal to half of the exposed cells or organisms. Lower therefore signals greater toxicity. For `CCOC(=O)NCCOc1ccc(Oc2ccccc2)cc1` [Fenoxycarb], the LC50 came to 2.73 ppm (2nd instar larvae of S. littoralis, after 72 h of treatment); 43.231 ppm (4th instar larvae of S. littoralis, after 72 h of treatment); 2.73 µg/mL (≈ 9.06 µM) (Spodoptera littoralis, foliar). Also, the Toxic ratio was determined as 100 (2nd instar larvae) and 1 (4th instar larvae).
